ChEMBL document CHEMBL1143674, “Isoprenylated flavonoids from the stem bark of Erythrina abyssinica” (J Nat Prod, 2007)

The compounds below were run against T1, Tyrosine-protein phosphatase non-receptor type 1 (Homo sapiens, UniProt P18031) (assay: Inhibition of human recombinant PTP1B).
T1 sequence (P18031 whole entry): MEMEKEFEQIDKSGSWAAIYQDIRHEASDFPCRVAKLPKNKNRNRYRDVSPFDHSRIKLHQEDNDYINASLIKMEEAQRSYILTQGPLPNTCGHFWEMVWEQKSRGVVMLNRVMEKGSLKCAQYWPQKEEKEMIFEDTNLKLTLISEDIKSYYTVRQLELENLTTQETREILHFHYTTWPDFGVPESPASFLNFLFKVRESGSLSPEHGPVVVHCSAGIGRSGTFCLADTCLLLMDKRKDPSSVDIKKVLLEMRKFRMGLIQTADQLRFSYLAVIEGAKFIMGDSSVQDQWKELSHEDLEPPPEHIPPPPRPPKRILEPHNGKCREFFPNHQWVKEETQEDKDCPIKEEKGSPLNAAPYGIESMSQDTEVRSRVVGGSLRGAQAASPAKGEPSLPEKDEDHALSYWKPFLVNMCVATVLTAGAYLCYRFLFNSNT

SMILES	IC50 [µM]
COc1cc([C@@H]2CC(=O)c3ccc(O)cc3O2)cc(CC=C(C)C)c1O	19.2
CC(C)=CCc1cc(-c2cc(=O)c3c(O)cc(O)cc3o2)ccc1O	26.7
COc1cc([C@@H]2CC(=O)c3c(O)cc(O)cc3O2)cc(CC=C(C)C)c1O [ABYSSININ II]	17.3
COc1cc(C2CC(=O)c3c(O)cc(O)cc3O2)cc2c1OC(C)(C)C=C2 (stereo not drawn) [ABYSSININ I]	18.2
C=C(C)C(O)Cc1cc([C@@H]2CC(=O)c3c(O)cc(O)cc3O2)cc(CC=C(C)C)c1O (stereo partly drawn) [ABYSSINOFLAVANONE VII]	15.7
CC(C)=CCc1cc([C@@H]2CC(=O)c3c(O)cc(O)cc3O2)cc2ccoc12 [ABYSSINOFLAVANONE VI]	18.9
CC1(C)C=Cc2cc([C@@H]3CC(=O)c4c(O)cc(O)cc4O3)ccc2O1 [ABYSSINOFLAVONE V]	> 60
CC(C)=CCc1cc(/C=C/C(=O)c2ccc(O)cc2O)cc(CC=C(C)C)c1O [ABYSSINONE VI]	20.6
CC(C)=CCc1cc(/C=C/C(=O)c2ccc(O)cc2O)ccc1O [LICOAGROCHALCONE A]	16.9
CC(C)=CCc1cc([C@@H]2CC(=O)c3c(O)cc(O)cc3O2)c(CC=C(C)C)c(O)c1O [SIGMOIDIN A]	14.4
CC(C)=CCc1cc([C@@H]2CC(=O)c3c(O)cc(O)cc3O2)cc(O)c1O [SIGMOIDIN B]	19.4
CC1(C)C=Cc2cc([C@@H]3CC(=O)c4c(O)cc(O)cc4O3)cc(O)c2O1 [SIGMOIDIN C]	> 60
CC(C)=CCc1c([C@H]2CC(=O)c3c(O)cc(O)cc3O2)cc2c(c1O)OC(C)(C)C=C2 [SIGMOIDIN F]	14.2
